According to patent publication US10793892B2, “Method for detecting the presence of expanded spectrum β-lactamase-producing bacteria in a sample” (INSERM (INSTITUT NATIONAL DE LA SANTE ET DE LA RECHERCHE …, priority 2011, dated 2020):

Columns and labels:
Enterobacteriaceae = assay type: biochemical; settings: all CTX-M producers (n=147); tazobactam added to cefotaxime well
Method: Strains were isolated on Mueller-Hinton agar (Biorad, Marnes-la-Coquette, France) and incubated at 37° C. for 16 h to 24 h before performing the NDP rapid ESBL test as follows. One calibrated inoculated loop (10 μl) of the tested strain was resuspended in 150 μl of 20 mM Tris-HCl lysis buffer previously distributed in Microbead tubes (Ultraclean Microbial DNA isolation kit Bead Tubes, MO BIO Laboratories, Carlsbad, USA). Mechanical lysis of bacteria was performed by strong agitation of Microbead tubes using a vortex adapter (MO BIO Laboratories) for 30 min at room temperature. This bacterial suspension was centrifuged at 10,000×g at room temperature for 5 min. Thirty μl of the supernatant was mixed in a well of a 96-well tray with 100 μl of a 1 ml solution made of 3 mg of purified cefotaxime sodium salt (Sigma-Aldrich, Saint-Quentin-Fallavier, France) in a pH 7.8 phenol red solution. […] The phenol red solution was made by taking 2 ml of a concentrated pH 8 phenol solution (made from a mixture of phenol red 0.5% in distilled water) to which 16.6 ml of distilled water was added. The pH value was then adjusted to a 7.8 value by adding drops of a 1 N NaOH solution. Mixture of the phenol red solution and the enzymatic suspension being tested was incubated at 37° C. for 30 min. Similarly, culture extracts were analyzed in wells containing cefotaxime and tazobactam (4 mg/ml). […]

K. oxytoca = test: ESBL NDP test using cultured strains; assay type: biochemical, Klebsiella oxytoca; parameters: key: (+) and (−) referred to color change being, red to yellow or unchanged, respectively; (+) and (−) referred to color change being, red to yellow or unchanged, respectively; settings: K. oxytoca Wild-type penicillinase, n=1
Method: Strains were isolated on Mueller-Hinton agar (Biorad, Marnes-la-Coquette, France) and incubated at 37° C. for 16 h to 24 h before performing the NDP rapid ESBL test as follows. One calibrated inoculated loop (10 μl) of the tested strain was resuspended in 150 μl of 20 mM Tris-HCl lysis buffer previously distributed in Microbead tubes (Ultraclean Microbial DNA isolation kit Bead Tubes, MO BIO Laboratories, Carlsbad, USA). Mechanical lysis of bacteria was performed by strong agitation of Microbead tubes using a vortex adapter (MO BIO Laboratories) for 30 min at room temperature. This bacterial suspension was centrifuged at 10,000×g at room temperature for 5 min. Thirty μl of the supernatant was mixed in a well of a 96-well tray with 100 μl of a 1 ml solution made of 3 mg of purified cefotaxime sodium salt (Sigma-Aldrich, Saint-Quentin-Fallavier, France) in a pH 7.8 phenol red solution. […]. The phenol red solution was made by taking 2 ml of a concentrated pH 8 phenol solution (made from a mixture of phenol red 0.5% in distilled water) to which 16.6 ml of distilled water was added. The pH value was then adjusted to a 7.8 value by adding drops of a 1 N NaOH solution. Mixture of the phenol red solution and the enzymatic suspension being tested was incubated at 37° C. for 30 min. Similarly, culture extracts were analyzed in wells containing cefotaxime and tazobactam (4 mg/ml). […]

E. cloacae [1] = test: ESBL NDP test using spiked blood cultures; assay type: biochemical, Enterobacter cloacae; parameters: key: (+) and (−) referred to color change being, red to yellow or unchanged, respectively; (+) and (−) referred to color change being, red to yellow or unchanged, respectively
Method: (§1) Strains were isolated on Mueller-Hinton agar (Biorad, Marnes-la-Coquette, France) and incubated at 37° C. for 16 h to 24 h before performing the NDP rapid ESBL test as follows. One calibrated inoculated loop (10 μl) of the tested strain was resuspended in 150 μl of 20 mM Tris-HCl lysis buffer previously distributed in Microbead tubes (Ultraclean Microbial DNA isolation kit Bead Tubes, MO BIO Laboratories, Carlsbad, USA). Mechanical lysis of bacteria was performed by strong agitation of Microbead tubes using a vortex adapter (MO BIO Laboratories) for 30 min at room temperature. This bacterial suspension was centrifuged at 10,000×g at room temperature for 5 min. Thirty μl of the supernatant was mixed in a well of a 96-well tray with 100 μl of a 1 ml solution made of 3 mg of purified cefotaxime sodium salt (Sigma-Aldrich, Saint-Quentin-Fallavier, France) in a pH 7.8 phenol red solution. […]. The phenol red solution was made by taking 2 ml of a concentrated pH 8 phenol solution (made from a mixture of phenol red 0.5% in distilled water) to which 16.6 ml of distilled water was added. The pH value was then adjusted to a 7.8 value by adding drops of a 1 N NaOH solution. Mixture of the phenol red solution and the enzymatic suspension being tested was incubated at 37° C. for 30 min. Similarly, culture extracts were analyzed in wells containing cefotaxime and tazobactam (4 mg/ml). Other concentrations of tazobactam and other ß-lactamase inhibitors were tested giving less clear results (data not shown). […] This definition of test positivity will be applied throughout the study.
Rapid detection of ESBL producers was attempted from spiked blood cultures which positivity was assessed using the BactAlert blood culture system (bioMérieux). […] This inoculum was reached after 24-48 h incubation in this BactAlert system. Strains were inoculated into blood culture system in presence of 10 ml of sterile blood. The panel of strains used for spiking blood cultures included either non-ESBL producers (n=24) or ESBL producers (n=64) (Table 4). Spiked blood cultures were made of 1×10^3 CFU of each strain and incubated 24 to 48 h before a positivity of the blood culture was detected by the BactAlert system. Then, 15 ml of spiked blood culture were transferred in a sterile tube and centrifuged at 1,500×g for 3 min to pellet the red blood cells. The supernatant was recovered and centrifuged for 15 min at 4,000×g to pellet the bacteria. The bacterial pellet was then resuspended in 500 μl of distilled water, transferred in 1.5 ml tube and thoroughly vortexed for 15 sec to lyse the remnant red blood cells and wash the bacterial pellet. After 5 min of centrifugation at 10,000×g, the bacterial pellet was resuspended in 150 μl of 20 mM Tris-HCl lysis buffer and distributed in beadtubes. The ESBL NDP test was then applied to this pellet as described above. Experiments were systematically performed in triplicate.

E. aerogenes = test: ESBL NDP test using cultured strains; assay type: biochemical, Enterobacter aerogenes; parameters: key: (+) and (−) referred to color change being, red to yellow or unchanged, respectively; (+) and (−) referred to color change being, red to yellow or unchanged, respectively
Method: as §1

P. stuartii = test: Susceptibility testing, MIC by Etest; assay type: cell-based, Providencia stuartii; settings: P. stuartii TEM-24, n=1
Method: (§2) Susceptibility testing was performed by determining MIC values using the Etest® (AB bioMérieux; Solna, Sweden) on Mueller-Hinton agar plates at 37° C. and results were recorded according to US guidelines (CLSI), as updated in 2012 (2). The breakpoints for cefotaxime are susceptible (S)≤1 and resistant (R)≥4 μg/ml, and for ceftazidime S≤4 and R≥16 μg/ml.

M. morganii = test: ESBL NDP test using cultured strains; assay type: biochemical, Morganella morganii; parameters: key: (+) and (−) referred to color change being, red to yellow or unchanged, respectively; (+) and (−) referred to color change being, red to yellow or unchanged, respectively
Method: as §1

S. marcescens = test: Susceptibility testing, MIC by Etest; assay type: cell-based, Serratia marcescens; settings: S. marcescens Wild-type, chromosome-encoded cephalosporinase, n=2
Method: as §2

E. cloacae [2] = test: Susceptibility testing, MIC by Etest; assay type: cell-based, Enterobacter cloacae
Method: as §2

E. coli = test: Susceptibility testing, MIC by Etest; assay type: cell-based, Escherichia coli
Method: as §2

For CO/N=C(\C(=O)N[C@@H]1C(=O)N2C(C(=O)O)=C(COC(C)=O)CS[C@H]12)c1csc(N)n1 [CTX, cefotaxime], the “color of the wells” value (Enterobacteriaceae) was “turned from red to yellow”, the “Test (color change)” value (K. oxytoca) was “−” and the “ESBL NDP Test from: Blood culture” value (E. cloacae [1]; E. cloacae 09.57, SHV-12) was “+”. The “ESBL NDP Test from: Blood culture” value (E. cloacae [1]; E. cloacae 10.75, CTX-M-15) was “+”, the “ESBL NDP Test from: Blood culture” value (E. cloacae [1]; E. cloacae 10.87, CTX-M-15) was “+” and the “ESBL NDP Test from: Blood culture” value (E. cloacae [1]; E. cloacae BG 1106 7725, Wild-type) was “−”. The “ESBL NDP Test from: Blood culture” value (E. cloacae [1]; E. cloacae BG 1106 7746, Wild-type) was “−”, the “ESBL NDP Test from: Blood culture” value (E. cloacae [1]; E. cloacae BG 1107 4118, Wild-type) was “−” and the “ESBL NDP Test from: Colonies” value (E. aerogenes; E. aerogenes BN 1113 0225, Wild-type) was “−”. The “ESBL NDP Test from: Colonies” value (E. aerogenes; E. aerogenes E2O15, TEM-121) was “−”, the “Test (color change)” value (E. aerogenes; E. aerogenes TEM-24, n=6) was “−” and the “Test (color change)” value (E. aerogenes; E. aerogenes TEM-121, n=1) was “−”. For the same compound, the “Test (color change)” value (E. aerogenes; E. aerogenes Wild-type, chromosome-encoded cephalosporinase, n=1) was “−”, the MICs range (P. stuartii) was 0.5 µg/mL and the “ESBL NDP Test from: Colonies” value (M. morganii; M. morganii BG 1106 5902, Wild-type) was “−”. The “ESBL NDP Test from: Colonies” value (M. morganii; M. morganii BG 1117 0617, Wild-type) was “−”, the “Test (color change)” value (M. morganii; M. morganii Wild-type, chromosome-encoded cephalosporinase, n=2) was “−” and the MICs range (S. marcescens) was 0.19 to 0.75 µg/mL. The MICs range (E. cloacae [2]; E. cloacae CTX-M-14, n=1) was over 16 µg/mL, the MICs range (E. cloacae [2]; E. cloacae CTX-M-15, n=17) was over 16 µg/mL and the MICs range (E. cloacae [2]; E. cloacae GES-5, n=1) was over 16 µg/mL. For the same compound, the MICs range (E. cloacae [2]; E. cloacae PER-1, n=1) was over 16 µg/mL, the MICs range (E. cloacae [2]; E. cloacae SHV-5, n=1) was over 16 µg/mL and the MICs range (E. cloacae [2]; E. cloacae TEM-3, n=2) was over 16 µg/mL. The MICs range (E. cloacae [2]; E. cloacae VEB-1, n=1) was 16 µg/mL, the MICs range (E. cloacae [2]; E. cloacae Wild-type, chromosome-encoded cephalosporinase, n=5) was 0.09 to 0.5 µg/mL and the MICs range (E. cloacae [2]; E. cloacae, overexpressed chromosome-encoded cephalosporinase, n=2) was over 16 µg/mL. For the same compound, the MICs range (E. cloacae [2]; E. cloacae, overexpressed chromosome-encoded cephalosporinase, n=3) was over 16 µg/mL, the MICs range (E. coli; E. coli ACC-1, n=1, first line) was over 16 µg/mL and the MICs range (E. coli; E. coli ACC-1, n=1, second line) was over 16 µg/mL. For the same compound, the MICs range (E. coli; E. coli CMY-2, n=1) was over 16 µg/mL, the MICs range (E. coli; E. coli CTX-M-1, n=16) was over 16 µg/mL and the MICs range (E. coli; E. coli CTX-M-2, n=3) was over 16 µg/mL. For the same compound, the MICs range (E. coli; E. coli CTX-M-3, n=1) was over 16 µg/mL, the MICs range (E. coli; E. coli CTX-M-9, n=1) was over 16 µg/mL and the MICs range (E. coli; E. coli CTX-M-14, n=15) was over 16 µg/mL. The MICs range (E. coli; E. coli CTX-M-27, n=6) was over 16 µg/mL, the MICs range (E. coli; E. coli CTX-M-28, n=1) was over 16 µg/mL and the MICs range (E. coli; E. coli CTX-M-32, n=1) was over 16 µg/mL. It also gave an MICs range (E. coli; E. coli CTX-M-97, n=1) of over 16 µg/mL, an MICs range (E. coli; E. coli DHA-1, n=1) of 0.25 µg/mL and an MICs range (E. coli; E. coli SHV-3, n=1) of 12 µg/mL. The MICs range (E. coli; E. coli SHV-12, n=1) was 0.75 µg/mL, the MICs range (E. coli; E. coli SHV-12, n=6) was over 16 µg/mL and the MICs range (E. coli; E. coli TEM-1 penicillinase, n=5) was 0.03 to 0.09 µg/mL. It also gave an MICs range (E. coli; E. coli TEM-12, n=1) of 0.5 µg/mL, an MICs range (E. coli; E. coli TEM-29, n=2) of 0.25 µg/mL and an MICs range (E. coli; E. coli TEM-133, n=1) of 0.19 µg/mL. For the same compound, the MICs range (E. coli; E. coli VEB-1, n=1) was 8 µg/mL and the MICs range (E. coli; E. coli Wild-type, no resistance, n=5) was 0.02 to 0.04 µg/mL.
